# Reference: publication PMC12827894, “Structure-guided design of picomolar-level macrocyclic TRPC5 channel inhibitors with antidepressant activity” (Acta Pharmaceutica Sinica. B, 2025)
# Read-outs that look alike come from different tables or passages of the source.
# Columns and labels:
# A2A = molecular target: T1, A2A (Homo sapiens, UniProt P29274); type: cell-based
# T1 construct: purchased ICE Bioscience ICESTP SafetyOne44 Panel
# H2 = molecular target: T2, H2 (Homo sapiens, UniProt P25021); test: SafetyOne44 panel: H2; type: cell-based; details: 10 μmol/L
# T2 construct: purchased ICE Bioscience ICESTP™ SafetyOne44 Panel
# T2 sequence (P25021 whole entry): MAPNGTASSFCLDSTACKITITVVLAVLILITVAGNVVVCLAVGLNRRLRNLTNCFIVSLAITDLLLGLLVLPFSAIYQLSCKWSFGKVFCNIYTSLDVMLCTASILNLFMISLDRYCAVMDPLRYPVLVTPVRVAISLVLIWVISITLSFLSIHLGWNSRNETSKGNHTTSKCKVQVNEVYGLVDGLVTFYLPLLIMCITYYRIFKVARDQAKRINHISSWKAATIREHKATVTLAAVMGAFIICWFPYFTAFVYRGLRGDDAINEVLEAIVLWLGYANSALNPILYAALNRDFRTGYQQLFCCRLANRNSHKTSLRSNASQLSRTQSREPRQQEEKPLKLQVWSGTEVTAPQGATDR
# TRPC1/4 = molecular target: T3, TRPC1/4 (Homo sapiens, UniProt P48995+Q9UBN4); test: Whole-cell patch-clamp, TRPC1/4 heteromer, 100 nmol/L EA; type: cell-based; details: read-out: IC50, TRPC1/4
# T3 construct: expressed in transfected cells; host or cells: HEK293T
# Source text: (§1) Given that TRPC4 and TRPC5 are highly similar and often form heteromeric with TRPC1, we evaluated JDIC-127's activity on TRPC4, TRPC1/4, and TRPC1/5 using whole-cell patch-clamp recordings under agonist stimulation with 100 nmol/L EA in HEK293T cells. […].
# (§2) For electrophysiological activity testing of compounds against TRPC4 and TRPC5, stably expressed TRPC5 or TRPC4 cells were used for whole-cell patch-clamp recordings, employing a HEKA EPC10 amplifier and […] software (https://www.heka.com/downloads/downloads_main.html#down_patchmaster). Prior to recording, cells were induced with 1 μg/mL tetracycline for 24 h. For TRPC1/4 or TRPC1/5 heteromers, plasmids TRPC1 and TRPC5 or TRPC1 and TRPC4 were co-transfected into HEK293T cells. After 48 to 72 h of transfection, testing was performed. A 1-s ramp protocol from −100 to +100 mV at 0.2 Hz was applied, as previously described. The extracellular solution consisted of 140 mmol/L NaCl, 1 mmol/L MgCl2, 2 mmol/L CaCl2, 10 mmol/L Hepes, 5 mmol/L KCl, and 10 mmol/L D-glucose, with pH adjusted to 7.4 using NaOH. […] The half-maximal inhibitory concentration (IC50) of drugs was determined by recording currents at a +100 mV pulse and analyzing current amplitudes at varying drug concentrations, with IC50 values calculated using the Hill equation. […]
# NR1/NR2B = molecular target: T4, NR1/NR2B (Homo sapiens, UniProt Q05586+Q13224); test: SafetyOne44 panel ion channels: NR1/NR2B; type: cell-based; details: NR1/NR2B, 5 μmol/L
# T4 construct: ICE Bioscience ICESTP SafetyOne44 Panel
# T4 sequence (Q13224 27-1484, other chains not shown): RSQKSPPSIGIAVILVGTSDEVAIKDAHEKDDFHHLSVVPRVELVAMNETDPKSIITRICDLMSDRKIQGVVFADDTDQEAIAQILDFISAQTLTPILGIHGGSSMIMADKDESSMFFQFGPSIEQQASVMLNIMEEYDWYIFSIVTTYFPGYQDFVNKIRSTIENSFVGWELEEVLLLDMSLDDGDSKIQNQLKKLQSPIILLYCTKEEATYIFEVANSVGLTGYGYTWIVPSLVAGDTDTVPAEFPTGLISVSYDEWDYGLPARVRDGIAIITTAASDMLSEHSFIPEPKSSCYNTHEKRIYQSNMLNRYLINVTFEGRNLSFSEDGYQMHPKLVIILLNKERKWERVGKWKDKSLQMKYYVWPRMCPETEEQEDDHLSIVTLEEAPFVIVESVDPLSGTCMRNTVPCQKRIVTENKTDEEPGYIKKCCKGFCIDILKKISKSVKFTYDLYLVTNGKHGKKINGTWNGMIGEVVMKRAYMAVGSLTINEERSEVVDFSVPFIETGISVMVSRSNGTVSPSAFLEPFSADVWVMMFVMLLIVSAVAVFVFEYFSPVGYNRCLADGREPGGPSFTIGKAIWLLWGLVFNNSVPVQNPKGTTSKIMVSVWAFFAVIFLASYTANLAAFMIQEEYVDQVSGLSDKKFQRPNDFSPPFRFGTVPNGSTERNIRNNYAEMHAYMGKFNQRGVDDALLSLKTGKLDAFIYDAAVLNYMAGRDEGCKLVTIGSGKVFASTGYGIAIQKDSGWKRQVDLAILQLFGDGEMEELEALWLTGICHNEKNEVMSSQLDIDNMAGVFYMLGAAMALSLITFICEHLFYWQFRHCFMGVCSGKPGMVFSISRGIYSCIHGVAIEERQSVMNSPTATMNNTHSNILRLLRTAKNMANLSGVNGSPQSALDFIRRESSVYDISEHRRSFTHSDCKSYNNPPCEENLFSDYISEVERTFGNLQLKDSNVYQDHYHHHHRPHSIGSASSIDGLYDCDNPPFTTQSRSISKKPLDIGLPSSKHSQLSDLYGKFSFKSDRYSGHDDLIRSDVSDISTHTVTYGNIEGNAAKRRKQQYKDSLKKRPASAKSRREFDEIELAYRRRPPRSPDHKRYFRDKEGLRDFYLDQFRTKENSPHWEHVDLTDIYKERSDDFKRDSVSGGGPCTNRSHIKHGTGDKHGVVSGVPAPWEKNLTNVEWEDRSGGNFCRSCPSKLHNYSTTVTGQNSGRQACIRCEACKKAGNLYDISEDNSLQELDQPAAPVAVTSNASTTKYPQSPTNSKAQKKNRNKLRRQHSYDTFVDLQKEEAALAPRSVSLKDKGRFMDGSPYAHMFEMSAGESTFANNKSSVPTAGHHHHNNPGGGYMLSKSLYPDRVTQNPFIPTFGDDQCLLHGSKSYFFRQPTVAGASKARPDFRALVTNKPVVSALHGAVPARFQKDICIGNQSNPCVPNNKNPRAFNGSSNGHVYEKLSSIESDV
# AR = molecular target: T5, AR (Homo sapiens, UniProt P10275); test: cell-based; type: cell-based
# T5 construct: purchased ICE Bioscience ICESTP™ SafetyOne44 Panel
# TRPC4 = molecular target: T6, TRPC4 (Homo sapiens, UniProt Q9UBN4); test: Whole-cell patch-clamp, TRPC4, 100 nmol/L EA; type: cell-based; details: HEK293T
# T6 construct: expressed in transfected cells
# Source text: as §1, §2
# IKs = molecular target: T7, IKs (Homo sapiens, UniProt P51787); test: SafetyOne44 panel ion channels: IKs; type: cell-based; details: 5 μmol/L
# T7 construct: ICE Bioscience ICESTP SafetyOne44 Panel
# D1 = molecular target: T8, D1 (Homo sapiens, UniProt P21728); test: cell-based; type: cell-based
# T8 construct: purchased ICE Bioscience ICESTP™ SafetyOne44 Panel
# T8 sequence (P21728 whole entry): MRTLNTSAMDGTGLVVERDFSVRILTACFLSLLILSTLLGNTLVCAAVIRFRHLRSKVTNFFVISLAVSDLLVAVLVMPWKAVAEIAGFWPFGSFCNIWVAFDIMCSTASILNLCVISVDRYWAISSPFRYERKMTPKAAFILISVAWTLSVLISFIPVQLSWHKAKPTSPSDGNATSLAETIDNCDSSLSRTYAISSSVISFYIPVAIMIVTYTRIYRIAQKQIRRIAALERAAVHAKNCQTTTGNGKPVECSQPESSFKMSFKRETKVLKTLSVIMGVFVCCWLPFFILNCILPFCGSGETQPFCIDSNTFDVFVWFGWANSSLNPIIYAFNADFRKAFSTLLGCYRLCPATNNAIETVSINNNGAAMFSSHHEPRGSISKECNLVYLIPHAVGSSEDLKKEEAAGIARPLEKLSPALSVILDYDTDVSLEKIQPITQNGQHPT
# TRPV1 = TRPV1 (Homo sapiens, UniProt Q8NER1); test: Patch-clamp selectivity, TRPV1; type: cell-based; details: 10 μmol/L
# 5-HT2A = molecular target: T9, 5-HT2A (Homo sapiens, UniProt P28223); test: cell-based; type: cell-based
# T9 construct: purchased ICE Bioscience ICESTP SafetyOne44 Panel
# T9 sequence (P28223 whole entry): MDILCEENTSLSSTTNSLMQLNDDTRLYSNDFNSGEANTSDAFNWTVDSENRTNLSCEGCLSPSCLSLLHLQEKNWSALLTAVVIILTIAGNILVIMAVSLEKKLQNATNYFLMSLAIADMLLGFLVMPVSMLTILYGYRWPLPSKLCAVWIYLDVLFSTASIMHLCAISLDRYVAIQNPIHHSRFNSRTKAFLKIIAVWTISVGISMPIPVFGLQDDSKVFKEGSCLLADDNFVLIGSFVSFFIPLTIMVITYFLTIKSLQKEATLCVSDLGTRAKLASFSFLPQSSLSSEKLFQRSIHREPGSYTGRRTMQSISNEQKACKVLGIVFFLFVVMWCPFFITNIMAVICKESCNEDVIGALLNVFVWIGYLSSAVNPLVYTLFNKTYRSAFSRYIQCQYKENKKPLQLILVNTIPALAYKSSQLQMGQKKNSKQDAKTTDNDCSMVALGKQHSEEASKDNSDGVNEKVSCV
# β2 = molecular target: T10, β2 (Homo sapiens, UniProt P07550); test: SafetyOne44 panel: β2; type: cell-based
# T10 construct: purchased ICE Bioscience ICESTP™ SafetyOne44 Panel
# T10 sequence (P07550 whole entry): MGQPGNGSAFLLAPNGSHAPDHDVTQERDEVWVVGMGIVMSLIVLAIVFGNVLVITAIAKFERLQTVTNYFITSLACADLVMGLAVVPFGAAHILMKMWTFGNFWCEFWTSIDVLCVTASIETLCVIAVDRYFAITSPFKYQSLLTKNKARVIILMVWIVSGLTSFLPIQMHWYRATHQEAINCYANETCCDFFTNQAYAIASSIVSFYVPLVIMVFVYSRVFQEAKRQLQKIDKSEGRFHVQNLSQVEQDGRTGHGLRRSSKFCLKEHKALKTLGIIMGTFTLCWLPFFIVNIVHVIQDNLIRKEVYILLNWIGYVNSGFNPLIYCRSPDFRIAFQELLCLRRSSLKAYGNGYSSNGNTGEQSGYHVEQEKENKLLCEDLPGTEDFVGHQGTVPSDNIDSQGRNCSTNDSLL
# μOR = molecular target: T11, μOR (Homo sapiens, UniProt P35372); test: cell-based; details: antagonist mode, 10 μmol/L, read-out: Antagonist JDIC-127 @10 μmol/L
# T11 construct: purchased ICE Bioscience ICESTP™ SafetyOne44 Panel
# 5-HT1B = molecular target: T12, 5-HT1B (Homo sapiens, UniProt P28222); test: cell-based; details: 10 μmol/L
# T12 construct: purchased ICE Bioscience ICESTP SafetyOne44 Panel
# T12 sequence (P28222 whole entry): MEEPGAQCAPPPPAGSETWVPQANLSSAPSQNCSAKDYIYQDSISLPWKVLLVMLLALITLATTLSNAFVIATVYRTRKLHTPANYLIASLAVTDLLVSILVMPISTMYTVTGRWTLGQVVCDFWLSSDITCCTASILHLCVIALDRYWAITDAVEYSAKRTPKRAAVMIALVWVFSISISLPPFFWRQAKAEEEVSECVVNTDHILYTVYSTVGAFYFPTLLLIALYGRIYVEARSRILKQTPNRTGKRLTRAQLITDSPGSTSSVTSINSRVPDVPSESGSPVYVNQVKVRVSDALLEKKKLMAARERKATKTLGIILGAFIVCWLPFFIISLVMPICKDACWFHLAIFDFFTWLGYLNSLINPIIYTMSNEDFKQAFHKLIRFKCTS
# COX2 = COX2 (Homo sapiens, UniProt P35354); test: biochemical; details: read-out: Antagonist JDIC-127 @10 μmol/L
# Chain of COX2 (P35354 18-604): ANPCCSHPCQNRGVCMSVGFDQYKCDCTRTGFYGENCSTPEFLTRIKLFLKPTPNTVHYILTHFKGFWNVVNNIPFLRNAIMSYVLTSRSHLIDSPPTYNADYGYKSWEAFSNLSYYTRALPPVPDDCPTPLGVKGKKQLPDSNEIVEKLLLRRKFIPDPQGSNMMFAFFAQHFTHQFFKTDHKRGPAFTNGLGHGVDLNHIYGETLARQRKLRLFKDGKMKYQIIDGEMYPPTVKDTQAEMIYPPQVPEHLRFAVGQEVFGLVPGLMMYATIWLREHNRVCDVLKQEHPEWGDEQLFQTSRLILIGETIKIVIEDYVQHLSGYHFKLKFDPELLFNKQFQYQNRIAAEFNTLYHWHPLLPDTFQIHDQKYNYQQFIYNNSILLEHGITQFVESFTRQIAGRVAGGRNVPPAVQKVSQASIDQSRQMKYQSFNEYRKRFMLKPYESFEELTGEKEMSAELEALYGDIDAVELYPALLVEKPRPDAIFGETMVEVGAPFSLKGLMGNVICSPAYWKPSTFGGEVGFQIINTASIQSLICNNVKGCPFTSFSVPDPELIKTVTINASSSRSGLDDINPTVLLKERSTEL
# GR = molecular target: T13, GR (Homo sapiens, UniProt P04150); test: SafetyOne44 panel: GR; type: cell-based
# T13 construct: purchased ICE Bioscience ICESTP™ SafetyOne44 Panel
# TRPC3 = TRPC3 (Homo sapiens, UniProt Q13507); test: Patch-clamp selectivity, TRPC3; type: cell-based; details: 1 μmol/L
# β1 = molecular target: T14, β1 (Homo sapiens, UniProt P08588); test: SafetyOne44 panel: β1; type: cell-based
# T14 construct: purchased ICE Bioscience ICESTP™ SafetyOne44 Panel
# T14 sequence (P08588 whole entry): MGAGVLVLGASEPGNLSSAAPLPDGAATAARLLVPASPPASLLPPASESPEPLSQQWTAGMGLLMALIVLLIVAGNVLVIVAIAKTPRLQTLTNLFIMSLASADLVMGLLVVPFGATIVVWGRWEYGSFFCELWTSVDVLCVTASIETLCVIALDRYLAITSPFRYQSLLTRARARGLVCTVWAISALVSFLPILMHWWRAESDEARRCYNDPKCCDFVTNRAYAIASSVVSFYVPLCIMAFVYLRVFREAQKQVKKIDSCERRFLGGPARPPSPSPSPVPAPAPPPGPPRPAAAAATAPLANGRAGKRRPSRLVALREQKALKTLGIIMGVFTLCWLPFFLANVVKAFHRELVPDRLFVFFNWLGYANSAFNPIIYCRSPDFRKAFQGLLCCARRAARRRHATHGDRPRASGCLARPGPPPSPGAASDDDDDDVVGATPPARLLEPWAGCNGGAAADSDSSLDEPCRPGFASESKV
# Nav1.5 = molecular target: T15, Nav1.5 (Homo sapiens, UniProt Q14524); test: SafetyOne44 panel ion channels: Nav1.5; type: cell-based; details: Nav1.5, 5 μmol/L
# T15 construct: ICE Bioscience ICESTP SafetyOne44 Panel
# hERG = hERG (Homo sapiens, UniProt Q12809); type: cell-based; parameters: purchased ICE Bioscience ICESTP SafetyOne44 Panel
# V1a = V1a (Homo sapiens, UniProt P37288); details: agonist mode
# LCK = molecular target: T16, LCK (Homo sapiens, UniProt P06239); test: biochemical; details: 10 μmol/L, read-out: Antagonist JDIC-127 @10 μmol/L
# T16 construct: purchased ICE Bioscience ICESTP™ SafetyOne44 Panel
# [1] = antagonist mode, 10 μmol/L, read-out: Antagonist JDIC-127 @10 μmol/L
# T1 sequence (P29274 whole entry): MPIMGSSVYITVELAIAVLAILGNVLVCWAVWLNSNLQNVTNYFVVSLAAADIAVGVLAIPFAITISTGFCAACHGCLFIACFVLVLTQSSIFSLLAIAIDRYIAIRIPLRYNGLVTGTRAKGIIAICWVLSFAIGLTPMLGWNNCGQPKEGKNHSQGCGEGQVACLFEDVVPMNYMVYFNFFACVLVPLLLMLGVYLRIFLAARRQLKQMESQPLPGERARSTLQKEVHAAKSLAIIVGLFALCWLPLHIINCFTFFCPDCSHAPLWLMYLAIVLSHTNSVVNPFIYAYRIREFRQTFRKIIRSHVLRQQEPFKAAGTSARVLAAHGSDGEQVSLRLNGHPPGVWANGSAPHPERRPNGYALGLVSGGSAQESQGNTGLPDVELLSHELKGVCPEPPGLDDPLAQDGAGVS
structure (smiles),measurement,setting,value
O=c1c2c3nc(n2Cc2ccc(Cl)cc2)Oc2ccc(F)c(c2)OCCCCCCn3c(=O)n1CCCO [JDIC-127],Agonist JDIC-127 @10 μmol/L,A2A; agonist mode,–1.55%
same,Antagonist JDIC-127 @10 μmol/L,A2A; antagonist mode,–2.78%
same,Agonist JDIC-127 @10 μmol/L,"H2; H2, agonist mode",–6.71%
same,inhibition at 10 µM,"H2; H2, antagonist mode, read-out: Antagonist JDIC-127 @10 μmol/L",5.6%
same,IC50,TRPC1/4,1.86 nM
same,Agonist JDIC-127 @ 5 μmol/L,NR1/NR2B; agonist mode,1.53%
same,Antagonist JDIC-127 @5 μmol/L,NR1/NR2B; antagonist mode,17.19%
same,Agonist JDIC-127 @10 μmol/L,AR; agonist mode,0.06%
same,inhibition at 10 µM,AR; [1],-7.02%
same,IC50,TRPC4,0.001 nM
same,Antagonist JDIC-127 @5 μmol/L,IKs,22.77%
same,Agonist JDIC-127 @10 μmol/L,"D1; D1, agonist mode",–1.54%
same,inhibition at 10 µM,"D1; D1, antagonist mode, 10 μmol/L, read-out: Antagonist JDIC-127 @10 μmol/L",8.89%
same,inhibition at 10 µM,TRPV1,< 33%
same,Agonist JDIC-127 @10 μmol/L,5-HT2A; agonist mode,3.92%
same,inhibition at 10 µM,5-HT2A; [1],5.24%
same,Agonist JDIC-127 @10 μmol/L,"β2; β2, agonist mode",–1.53%
same,inhibition at 10 µM,"β2; β2, antagonist mode, 10 μmol/L, read-out: Antagonist JDIC-127 @10 μmol/L",19.6%
same,Cbr,"i.v., 2 mg/kg, 2 min",407.01 nmol/kg
same,Cpl,"i.v., 2 mg/kg, 2 min",367.10 nmol/L
same,Cbr,"i.v., 2 mg/kg, 45 min",198.65 nmol/kg
same,Cpl,"i.v., 2 mg/kg, 45 min",51.63 nmol/L
same,Cbr,"i.v., 2 mg/kg, 180 min",74.96 nmol/kg
same,Cpl,"i.v., 2 mg/kg, 180 min",10.12 nmol/L
same,Cbr,"p.o., 10 mg/kg, 2 min",22.16 nmol/kg
same,Cpl,"p.o., 10 mg/kg, 2 min",6.36 nmol/L
same,Cbr,"p.o., 10 mg/kg, 45 min",223.33 nmol/kg
same,Cpl,"p.o., 10 mg/kg, 45 min",88.83 nmol/L
same,Cbr,"p.o., 10 mg/kg, 180 min",7.35 nmol/kg
same,Cpl,"p.o., 10 mg/kg, 180 min",22.96 nmol/L
same,inhibition at 10 µM,μOR,-16.9%
same,Agonist JDIC-127 @10 μmol/L,5-HT1B; agonist mode,10.95%
same,inhibition at 10 µM,"5-HT1B; antagonist mode, read-out: Antagonist JDIC-127 @10 μmol/L",-14.7%
same,inhibition at 10 µM,COX2,1.38%
same,Agonist JDIC-127 @10 μmol/L,GR; agonist mode,0.05%
same,inhibition at 10 µM,GR; [1],4.73%
same,inhibition at 1 µM,TRPC3,< 20%
same,Agonist JDIC-127 @10 μmol/L,"β1; β1, agonist mode",–1.87%
same,inhibition at 10 µM,"β1; β1, antagonist mode, 10 μmol/L, read-out: Antagonist JDIC-127 @10 μmol/L",1.84%
same,Antagonist JDIC-127 @5 μmol/L,Nav1.5,2.98%
same,Antagonist JDIC-127 @5 μmol/L,hERG,19.40%
same,Agonist JDIC-127 @10 μmol/L,V1a,–7.01%
same,inhibition at 10 µM,LCK,29.4%
